Earlier results in patent publication US20110171165A1 (priority 2008, published 2011).

Molecular target: δ receptors (Cavia porcellus, UniProt A0A286XTF2)
Conditions: read-out: affinity for δ receptors; guinea-pig brain membranes

δ receptors, sequence (A0A286XTF2 1-366): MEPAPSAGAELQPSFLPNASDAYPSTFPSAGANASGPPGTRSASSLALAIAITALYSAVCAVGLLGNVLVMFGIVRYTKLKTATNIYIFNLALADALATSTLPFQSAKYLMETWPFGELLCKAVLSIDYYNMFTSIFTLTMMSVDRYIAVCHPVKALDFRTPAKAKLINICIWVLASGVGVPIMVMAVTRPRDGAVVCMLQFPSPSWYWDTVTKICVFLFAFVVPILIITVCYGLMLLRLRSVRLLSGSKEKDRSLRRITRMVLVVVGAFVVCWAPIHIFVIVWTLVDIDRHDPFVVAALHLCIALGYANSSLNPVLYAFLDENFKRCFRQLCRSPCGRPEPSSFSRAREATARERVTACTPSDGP

For `CSCC[C@H](NC(=O)[C@H](Cc1ccccc1)NC(=O)CNC(=O)CNC(=O)[C@@H](N)Cc1ccc(O)cc1)C(=O)O` [OGF, Tyr-Gly-Gly-Phe-Met], the Ki is listed as 900 pM.
